Columns and labels:
[1] = assay type: in vivo, patients
Method: In one clinical trial, the absorption of the powdered colistimethate sodium into the airways of the lungs was measured (specific airway conductance). […] This is a very high uptake, and more than would be expected from a powdered drug. […] In a second trial, patients were given a premedication dose of 200 micrograms of salbutamol. […] In an alternative medication regime, the salbutamol can be mixed into the same capsule as the colistin sulphomethate sodium.

[2] = test system: gram negative microbial organisms; assay: Synergy of activity of the mixture of components; assay type: cell-based
Source text: Colistimethate sodium is a negatively charged molecular ion with positively charged sodium counter ions. […] There are five sulphomethate groups (CH2—OS02^−). U.S. Pat. No. 5,767,068 refers to variable groups Rx and R2; Rx is identified as 6-methyloctanoyl or 6-methylheptanoyl, and R2 as sec-butyl, isobutyl or isopropyl.

[3] = Water content (Karl-Fisher) of colistimethate sodium powder and gelatin capsules in various storage conditions; assay type: physicochemical; parameters: unit not given here; conditions: n = 3
Method: Aliquots of colistimethate sodium encapsulated in gelatin capsules were stored in relative humidity ranging from about 20% RH to about 80% RH at ambient temperature conditions. Encapsulated colistimethate sodium was tested for moisture content and piercing performance at several time points. For example, the capsules were tested at 23° C. at 30% RH, 23° C. at 40% RH, 23° C. at 48% RH, 23° C. at 75% RH at different time points such as 1, 2, 4, and 24 hrs. Storage conditions were generated using qualified stability chambers set at the target temperature 23° C.±2° C. and the set relative humidity ±5% RH. Ambient laboratory conditions were determined to be at about 23° C.±2° C., 48% RH. Ambient conditions were verified using calibrated NIST thermo-Hygrometers. Average moisture content of colistimethate sodium as well as the moisture content of gelatin capsules was determined using Karl-Fisher determination.

[4] = in vivo; cited from earlier work

CC(C)(C)NCC(O)c1ccc(O)c(CO)c1 (stereo not shown) [salbutamol]
airway conductance ([1]; premedication dose of 200 micrograms, second trial): appeared to improve airway conductance

colistin sulphomethate sodium [colistimethate sodium]
activity of the mixture of components against gram negative microbial organisms [2]: synergy of activity
Water Content (KF) ([3]; 23° C./30% RH, 0 hr): 5.44
Water Content (KF) ([3]; 23° C./30% RH, 1 hr): 5.28
Water Content (KF) ([3]; 23° C./30% RH, 2 hr): 5.85
Water Content (KF) ([3]; 23° C./30% RH, 4 hr): 5.94
Water Content (KF) ([3]; 23° C./30% RH, 24 hr): 6.54
Water Content (KF) ([3]; 23° C./40% RH, 0 hr): 5.44
Water Content (KF) ([3]; 23° C./40% RH, 1 hr): 5.96
Water Content (KF) ([3]; 23° C./40% RH, 2 hr): 5.81
Water Content (KF) ([3]; 23° C./40% RH, 4 hr): 6.51
Water Content (KF) ([3]; 23° C./40% RH, 9 hr): 6.50
Water Content (KF) ([3]; 23° C./40% RH, 24 hr): 9.54
Water Content (KF) ([3]; 23° C./48% RH, 0 hr): 5.44
Water Content (KF) ([3]; 23° C./48% RH, 1 hr): 5.68
Water Content (KF) ([3]; 23° C./48% RH, 2 hr): 6.39
Water Content (KF) ([3]; 23° C./48% RH, 4 hr): 6.64
Water Content (KF) ([3]; 23° C./48% RH, 24 hr): 14.49
Water Content (KF) ([3]; 23° C./75% RH, 0 hr): 5.44
Water Content (KF) ([3]; 23° C./75% RH, 1 hr): 7.04
Water Content (KF) ([3]; 23° C./75% RH, 2 hr): 6.96
Water Content (KF) ([3]; 23° C./75% RH, 4 hr): 10.74
irritation of the lungs ([1]; human, in vivo): does not cause irritation
specific airway conductance, whole body plethysmography, compared with traditional nebulised colistimethate sodium ([1]; human, in vivo): did not show any noticeable difference
absorption into the bloodstream [4]: poorly absorbed

Reference: patent US10441536B2, “Micronized colistimethane sodium pharmaceutical compositions” (Forest Laboratories Holdings Limited, priority 2013, dated 2019)
